Reference: PubChem BioAssay (NCI)
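Results reflect a 48-hour exposure of cells in 96-well plates to compound at five concentrations. The concentration for 50% growth inhibition is given as GI50. The concentration for full growth arrest is given as TGI.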

Key:
Experiment in all cases: NCI anticancer screen, dose series, 48 h
UACC-257 melanoma = tested on: UACC-257 melanoma
A549 NSCLC = tested on: A549 NSCLC
RPMI-8226 leukemia = tested on: RPMI-8226 leukemia
OVCAR-5 ovarian = tested on: OVCAR-5 ovarian
MDA-MB-231 breast = tested on: MDA-MB-231 breast
NCI-H226 lung = tested on: NCI-H226 lung
ACHN renal = tested on: ACHN renal
SK-MEL-5 melanoma = tested on: SK-MEL-5 melanoma
HT29 colon = tested on: HT29 colon
MOLT-4 leukemia = tested on: MOLT-4 leukemia
CCRF-CEM leukemia = tested on: CCRF-CEM leukemia
NCI-H522 lung = tested on: NCI-H522 lung
HOP-62 NSCLC = tested on: HOP-62 NSCLC
MCF7 breast = tested on: MCF7 breast
NCI-H460 lung = tested on: NCI-H460 lung
SNB-75 CNS = tested on: SNB-75 CNS
SF-268 CNS = tested on: SF-268 CNS
RXF 393 renal = tested on: RXF 393 renal
T-47D breast = tested on: T-47D breast
NCI-H23 lung = tested on: NCI-H23 lung
MALME-3M melanoma = tested on: MALME-3M melanoma
HCC-2998 colon = tested on: HCC-2998 colon
HCT-15 colon = tested on: HCT-15 colon
NCI/ADR-RES ovarian = tested on: NCI/ADR-RES ovarian
IGROV1 ovarian = tested on: IGROV1 ovarian
SW-620 colon = tested on: SW-620 colon
PC-3 prostate = tested on: PC-3 prostate
LOX IMVI melanoma = tested on: LOX IMVI melanoma
HS 578T breast = tested on: HS 578T breast

CC12OC(CC(O)C1O)n1c3ccccc3c3c4c(c5c6ccccc6n2c5c31)C(=O)N(CCN1CCCC1)C4=O (configuration not stated)
TGI (UACC-257 melanoma): 11.8 µM | GI50 (A549 NSCLC): 0.282 µM | TGI (A549 NSCLC): 6.17 µM | GI50 (RPMI-8226 leukemia): 1.32 µM | TGI (RPMI-8226 leukemia): 4.43 µM | GI50 (OVCAR-5 ovarian): 2.25 µM | TGI (OVCAR-5 ovarian): 14.9 µM | GI50 (MDA-MB-231 breast): 3.38 µM | TGI (MDA-MB-231 breast): 11.2 µM | GI50 (NCI-H226 lung): 1.42 µM | TGI (NCI-H226 lung): 11.4 µM | GI50 (ACHN renal): 0.336 µM | TGI (ACHN renal): 2.34 µM | GI50 (SK-MEL-5 melanoma): 1.22 µM | TGI (SK-MEL-5 melanoma): 7.12 µM | GI50 (HT29 colon): 0.434 µM | TGI (HT29 colon): 7.07 µM | GI50 (MOLT-4 leukemia): 0.197 µM | TGI (MOLT-4 leukemia): 16.5 µM | GI50 (CCRF-CEM leukemia): 0.936 µM | TGI (CCRF-CEM leukemia): 10.7 µM | GI50 (NCI-H522 lung): 0.606 µM | TGI (NCI-H522 lung): 5.4 µM | GI50 (HOP-62 NSCLC): 0.424 µM | TGI (HOP-62 NSCLC): 5.71 µM | GI50 (MCF7 breast): 0.199 µM | TGI (MCF7 breast): 5.88 µM | GI50 (NCI-H460 lung): 0.161 µM | TGI (NCI-H460 lung): 1.06 µM | GI50 (SNB-75 CNS): 0.879 µM | TGI (SNB-75 CNS): 6.71 µM | GI50 (SF-268 CNS): 0.789 µM | TGI (SF-268 CNS): 8.47 µM | GI50 (RXF 393 renal): 1.23 µM | TGI (RXF 393 renal): 7.25 µM | GI50 (T-47D breast): 0.868 µM | TGI (T-47D breast): 7.94 µM | GI50 (NCI-H23 lung): 1.24 µM | TGI (NCI-H23 lung): 7.95 µM | GI50 (MALME-3M melanoma): 1.3 µM | TGI (MALME-3M melanoma): 8.41 µM | GI50 (HCC-2998 colon): 3.96 µM | TGI (HCC-2998 colon): 10.8 µM | GI50 (HCT-15 colon): 1 µM | TGI (HCT-15 colon): 6.77 µM | GI50 (NCI/ADR-RES ovarian): 6.31 µM | TGI (NCI/ADR-RES ovarian): 14.5 µM | GI50 (IGROV1 ovarian): 0.951 µM | TGI (IGROV1 ovarian): 10.8 µM | GI50 (SW-620 colon): 0.31 µM | TGI (SW-620 colon): 7.22 µM | GI50 (PC-3 prostate): 1.79 µM | TGI (PC-3 prostate): 9.13 µM | GI50 (LOX IMVI melanoma): 0.308 µM | TGI (LOX IMVI melanoma): 1.45 µM | GI50 (HS 578T breast): 3.05 µM | TGI (HS 578T breast): 13.8 µM
